Results reported in patent publication US12668600B2 (Kumquat Biosciences Inc., priority 2023, dated 2026).

Assays:
Assay type in all cases: biochemical
[1] = biological target: T1, KRAS WT (Homo sapiens, UniProt P01116); test: HTRF KRAS-SOS1 interaction assay, wildtype KRAS; details: binned ≤2 μM / >2 μM, read-out: Inhibition of KRAS WT (IC50)
T1 construct: made in house; host or cells: E. coli, e.g. BL21 (DE3)
In short: (§1)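 Inhibition of the KRAS–SOS1 interaction was measured by HTRF (ex 337, em 620/665 nm) after ≥~10 min incubation. Donor: anti-GST-Eu on GST-KRAS; acceptor: anti-6His-XL665 on His-hSOS1, in HEPES pH 7.4 buffer with DTT, BSA and Igepal. Compounds in duplicate at 0.01–10 μM; IC50 from emission ratio.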

[2] = biological target: T2, KRAS G12D (Homo sapiens, UniProt P01116, G12D); test: HTRF KRAS-SOS1 interaction assay, KRAS G12D; details: binned ≤2 μM / >2 μM, read-out: Inhibition of KRAS G12D (IC50)
T2 construct: made in house; host or cells: E. coli, e.g. BL21 (DE3)
T2 sequence (P01116 1-188 isoform P01116-2 G12D): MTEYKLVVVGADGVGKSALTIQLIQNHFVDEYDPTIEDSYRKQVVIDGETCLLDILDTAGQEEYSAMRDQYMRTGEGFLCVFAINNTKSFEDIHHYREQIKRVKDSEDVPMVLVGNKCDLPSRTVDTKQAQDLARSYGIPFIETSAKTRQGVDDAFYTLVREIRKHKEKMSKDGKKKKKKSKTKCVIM
In short: as §1

[3] = biological target: T3, KRAS G12S (Homo sapiens, UniProt P01116, G12S); test: HTRF KRAS-SOS1 interaction assay, KRAS G12S; details: binned ≤2 μM / >2 μM, read-out: Inhibition of KRAS G12S (IC50)
T3 construct: made in house; host or cells: E. coli, e.g. BL21 (DE3)
T3 sequence (P01116 1-188 isoform P01116-2 G12S): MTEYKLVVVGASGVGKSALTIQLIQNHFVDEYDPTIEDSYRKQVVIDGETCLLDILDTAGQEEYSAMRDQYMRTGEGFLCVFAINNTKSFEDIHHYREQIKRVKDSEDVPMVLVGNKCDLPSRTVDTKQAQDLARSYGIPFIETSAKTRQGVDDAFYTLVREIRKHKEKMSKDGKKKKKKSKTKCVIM
In short: as §1

[4] = biological target: T4, KRAS G12V (Homo sapiens, UniProt P01116, G12V); test: HTRF KRAS-SOS1 interaction assay, KRAS G12V; details: binned ≤2 μM / >2 μM, read-out: Inhibition of KRAS G12V (IC50)
T4 construct: made in house; host or cells: E. coli, e.g. BL21 (DE3)
T4 sequence (P01116 1-188 isoform P01116-2 G12V): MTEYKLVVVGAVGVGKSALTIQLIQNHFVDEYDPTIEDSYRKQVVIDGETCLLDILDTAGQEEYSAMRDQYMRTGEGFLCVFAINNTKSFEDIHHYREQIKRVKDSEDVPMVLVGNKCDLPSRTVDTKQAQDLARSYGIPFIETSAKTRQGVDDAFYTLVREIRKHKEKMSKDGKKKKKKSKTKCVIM
In short: as §1

T1 sequence (P01116 1-188 isoform P01116-2): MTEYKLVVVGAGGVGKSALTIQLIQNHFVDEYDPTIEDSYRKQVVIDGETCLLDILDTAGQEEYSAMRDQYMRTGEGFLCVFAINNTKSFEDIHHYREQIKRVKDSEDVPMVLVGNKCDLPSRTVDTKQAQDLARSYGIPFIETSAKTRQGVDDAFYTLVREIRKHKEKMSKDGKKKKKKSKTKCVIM

| IC50 [1] [nM] | IC50 [2] [nM] | IC50 [3] [nM] | IC50 [4] [nM] | SMILES |
| --- | --- | --- | --- | --- |
| ≤ 2000 | ≤ 2000 | ≤ 2000 | ≤ 2000 | COCC[C@H](c1cccnc1N)N1CCOc2c(C(F)(F)F)c(-c3ccc(F)c4sc(N)c(C#N)c34)c(F)c3nc(OC[C@@]45CCCN4C[C@H](F)C5)nc1c23 [Compound 782, 2-amino-4-(4-((R)-1-(2-aminopyridin-3-yl)-3-methoxypropyl)-10-fluoro-2-(((2R,7aS)-2-fluorotetrahydro-1H-pyrrolizin-7a(5H)-yl)methoxy)-8-(trifluoromethyl)-5,6-dihydro-4H-[1,4]oxazepino[5,6,7-de]quinazolin-9-yl)-7-fluorobenzo[b]thiophene-3-carbonitrile] |
| ≤ 2000 | ≤ 2000 | ≤ 2000 | ≤ 2000 | C=C(F)[C@H](c1cccnc1N)N1CCOc2c(Cl)c(-c3ccc(F)c4sc(N)c(C#N)c34)c(F)c3nc(OC[C@@]45CCCN4C[C@H](F)C5)nc1c23 [Compound 694, 2-amino-4-(4-((S)-1-(2-aminopyridin-3-yl)-2-fluoroallyl)-8-chloro-10-fluoro-2-(((2R,7aS)-2-fluorotetrahydro-1H-pyrrolizin-7a(5H)-yl)methoxy)-5,6-dihydro-4H-[1,4]oxazepino[5,6,7-de]quinazolin-9-yl)-7-fluorobenzo[b]thiophene-3-carbonitrile] |
| ≤ 2000 | ≤ 2000 | ≤ 2000 | ≤ 2000 | CO[C@H]1CCN(C)[C@@H]1[C@H](C)Oc1nc2c3c(c(C(F)(F)F)c(-c4ccc(F)c5sc(N)c(C#N)c45)c(F)c3n1)OCCN2[C@H](C)c1cccnc1N [Compound 665, 2-amino-4-(4-((R)-1-(2-aminopyridin-3-yl)ethyl)-10-fluoro-2-((S)-1-((2R,3S)-3-methoxy-1-methylpyrrolidin-2-yl)ethoxy)-8-(trifluoromethyl)-5,6-dihydro-4H-[1,4]oxazepino[5,6,7-de]quinazolin-9-yl)-7-fluorobenzo[b]thiophene-3-carbonitrile] |
| ≤ 2000 | ≤ 2000 | ≤ 2000 | ≤ 2000 | CCO/N=C(\C)CCC[C@H](c1cccnc1N)N1CCOc2c(C(F)(F)F)c(-c3ccc(F)c4sc(N)c(C#N)c34)c(F)c3nc(OC[C@@]45CCCN4C[C@H](F)C5)nc1c23 (single isomer, unassigned) [Compound 715] |
| ≤ 2000 | ≤ 2000 | ≤ 2000 | ≤ 2000 | N#Cc1c(N)sc2c(F)ccc(-c3c(C(F)(F)F)c4c5c(nc(OC[C@@]67CCCN6CC(=C(F)F)C7)nc5c3F)N([C@H](CCC3CCOCC3)c3cccnc3N)CCO4)c12 [Compound 808, 2-amino-4-(4-((R)-1-(2-aminopyridin-3-yl)-3-(tetrahydro-2H-pyran-4-yl)propyl)-2-(((S)-2-(difluoromethylene)tetrahydro-1H-pyrrolizin-7a(5H)-yl)methoxy)-10-fluoro-8-(trifluoromethyl)-5,6-dihydro-4H-[1,4]oxazepino[5,6,7-de]quinazolin-9-yl)-7-fluorobenzo[b]thiophene-3-carbonitrile] |
| > 2000 | > 2000 | > 2000 | > 2000 | CC(Oc1nc2c3c(c(Cl)c(-c4ccc(F)c5sc(N)c(C#N)c45)c(F)c3n1)OCCN2[C@H](C)c1cccnc1N)[C@@H]1CC(F)(F)CN1C (single isomer, unassigned) [Compound 659] |
| ≤ 2000 | ≤ 2000 | ≤ 2000 | ≤ 2000 | C[C@H](c1cc(Cl)cnc1N)N1CCOc2c(C(F)(F)F)c(-c3ccc(F)c4sc(N)c(C#N)c34)c(F)c3nc(OCC4(CN5CCC6(CC5)CC6(F)F)CC4)nc1c23 [Compound 679, 2-amino-4-(4-((R)-1-(2-amino-5-chloropyridin-3-yl)ethyl)-2-((1-((1,1-difluoro-6-azaspiro[2.5]octan-6-yl)methyl)cyclopropyl)methoxy)-10-fluoro-8-(trifluoromethyl)-5,6-dihydro-4H-[1,4]oxazepino[5,6,7-de]quinazolin-9-yl)-7-fluorobenzo[b]thiophene-3-carbonitrile] |
| ≤ 2000 | ≤ 2000 | ≤ 2000 | ≤ 2000 | CC[S+]([O-])[C@H]1CN2CCC[C@@]2(COc2nc3c4c(c(Cl)c(-c5ccc(F)c6sc(N)c(C#N)c56)c(F)c4n2)OCCN3[C@H](C)c2cccnc2N)C1 (mixture of isomers) [Compound 906, 2-amino-4-(4-((R)-1-(2-aminopyridin-3-yl)ethyl)-8-chloro-2-(((2R,7aS)-2-(ethylsulfinyl)tetrahydro-1H-pyrrolizin-7a(5H)-yl)methoxy)-10-fluoro-5,6-dihydro-4H-[1,4]oxazepino[5,6,7-de]quinazolin-9-yl)-7-fluorobenzo[b]thiophene-3-carbonitrile] |
| ≤ 2000 | ≤ 2000 | ≤ 2000 | ≤ 2000 | CC(Oc1nc2c3c(c(Cl)c(-c4ccc(F)c5sc(N)c(C#N)c45)c(F)c3n1)OCCN2[C@H](C)c1cccnc1N)[C@@H]1CC(F)(F)CN1C (single isomer, unassigned) [Compound 919] |
| ≤ 2000 | ≤ 2000 | ≤ 2000 | ≤ 2000 | CCO/N=C(\C)CCC[C@H](c1cccnc1N)N1CCOc2c(C(F)(F)F)c(-c3ccc(F)c4sc(N)c(C#N)c34)c(F)c3nc(OC[C@@]45CCCN4C[C@H](F)C5)nc1c23 [Compound 854, 2-amino-4-(4-((R,E)-1-(2-aminopyridin-3-yl)-5-(ethoxyimino)hexyl)-10-fluoro-2-(((2R,7aS)-2-fluorotetrahydro-1H-pyrrolizin-7a(5H)-yl)methoxy)-8-(trifluoromethyl)-5,6-dihydro-4H-[1,4]oxazepino[5,6,7-de]quinazolin-9-yl)-7-fluorobenzo[b]thiophene-3-carbonitrile] |
| ≤ 2000 | ≤ 2000 | ≤ 2000 | ≤ 2000 | C=C1CN2CC(=C)CC2(COc2nc3c4c(c(C(F)(F)F)c(-c5ccc(F)c6sc(N)c(C#N)c56)c(F)c4n2)OCCN3[C@H](C)c2cccnc2N)C1 (single isomer, unassigned) [Compound 775] |
| ≤ 2000 | ≤ 2000 | ≤ 2000 | ≤ 2000 | CO[C@H]1CCN(C)[C@@H]1COc1nc2c3c(c(C(F)(F)F)c(-c4ccc(F)c5sc(N)c(C#N)c45)c(F)c3n1)OCCN2[C@H](C)c1cc(F)cnc1N (single isomer, unassigned) [Compound 774] |
| ≤ 2000 | ≤ 2000 | ≤ 2000 | ≤ 2000 | C[C@H](c1cc(Cl)cnc1N)N1CCOc2c(C(F)(F)F)c(-c3ccc(F)c4sc(N)c(C#N)c34)c(F)c3nc(OCC4(CN5CCC(F)CC5)CC4)nc1c23 [Compound 830, 2-amino-4-(4-((R)-1-(2-amino-5-chloropyridin-3-yl)ethyl)-10-fluoro-2-((1-((4-fluoropiperidin-1-yl)methyl)cyclopropyl)methoxy)-8-(trifluoromethyl)-5,6-dihydro-4H-[1,4]oxazepino[5,6,7-de]quinazolin-9-yl)-7-fluorobenzo[b]thiophene-3-carbonitrile] |
| ≤ 2000 | ≤ 2000 | ≤ 2000 | ≤ 2000 | N#Cc1c(N)sc2c(F)ccc(-c3c(Cl)c4c5c(nc(OC[C@@]67CCCN6C[C@H](F)C7)nc5c3F)N(C(CCCO)c3cccnc3N)CCO4)c12 (mixture of isomers) [Compound 822, 2-amino-4-(4-(1-(2-aminopyridin-3-yl)-4-hydroxybutyl)-8-chloro-10-fluoro-2-(((2R,7aS)-2-fluorotetrahydro-1H-pyrrolizin-7a(5H)-yl)methoxy)-5,6-dihydro-4H-[1,4]oxazepino[5,6,7-de]quinazolin-9-yl)-7-fluorobenzo[b]thiophene-3-carbonitrile] |
| ≤ 2000 | ≤ 2000 | ≤ 2000 | ≤ 2000 | N#Cc1c(N)sc2c(F)ccc(-c3c(C(F)(F)F)c4c5c(nc(OC[C@@]67CCCN6C[C@H](F)C7)nc5c3F)N([C@H](CC3CCOCC3)c3cc(F)cnc3N)CCO4)c12 [Compound 634, 2-amino-4-(4-((R)-1-(2-amino-5-fluoropyridin-3-yl)-2-(tetrahydro-2H-pyran-4-yl)ethyl)-10-fluoro-2-(((2R,7aS)-2-fluorotetrahydro-1H-pyrrolizin-7a(5H)-yl)methoxy)-8-(trifluoromethyl)-5,6-dihydro-4H-[1,4]oxazepino[5,6,7-de]quinazolin-9-yl)-7-fluorobenzo[b]thiophene-3-carbonitrile] |
| ≤ 2000 | ≤ 2000 | ≤ 2000 | ≤ 2000 | N#Cc1c(N)sc2c(F)ccc(-c3c(C(F)(F)F)c4c5c(nc(OC[C@@]67CCCN6C[C@H](F)C7)nc5c3F)N([C@H](CCC(F)(F)F)c3cc(Cl)cnc3N)CCO4)c12 [Compound 874, 2-amino-4-(4-((R)-1-(2-amino-5-chloropyridin-3-yl)-4,4,4-trifluorobutyl)-10-fluoro-2-(((2R,7aS)-2-fluorotetrahydro-1H-pyrrolizin-7a(5H)-yl)methoxy)-8-(trifluoromethyl)-5,6-dihydro-4H-[1,4]oxazepino[5,6,7-de]quinazolin-9-yl)-7-fluorobenzo[b]thiophene-3-carbonitrile] |
| > 2000 | > 2000 | > 2000 | > 2000 | C[C@H](c1cccnc1N)N1CCOc2c(C(F)(F)F)c(-c3ccc(F)c4sc(N)c(C#N)c34)c(F)c3nc(OCC4(CN5CCC(=C(F)F)CC5)CC4)nc1c23 (single isomer, unassigned) [Compound 884] |
